Literature values, collected in paper PMC13021292, “Safety, tolerability and pharmacokinetics of DNDI‐6148, a novel agent for leishmaniasis: A randomized, controlled, single ascending dose study in healthy participants” (British Journal of Clinical Pharmacology, 2025).

Parameters: method as in earlier work
Settings: cited from earlier work

## CC1(C)OB(O)c2cc(NC(=O)c3ccc(F)cc3C(F)(F)F)ccc21 [acoziborole]
  metabolism and elimination in humans: slow liver metabolism and predominant hepato‐biliary elimination
